Measured values reported in paper PMC3020970, “K70Q Adds High-Level Tenofovir Resistance to “Q151M Complex” HIV Reverse Transcriptase through the Enhanced Discrimination Mechanism” (PLoS ONE, 2011).
“And” between values parts separate entries of the source, which are not always exact repeats. Equal values may be shown once. Read-outs that look alike come from different tables or passages of the source. Marks after values point to notes of the source that are not given here.

Experiments:
HIV-1 RT WT = target: T1, HIV-1 RT WT (Human immunodeficiency virus type 1 group M subtype B, UniProt P03366); test: Primer extension assay; format: biochemical
T1 construct: made in house; host or cells: Escherichia coli BL21
Experimental: RT sequences coding for the p66 and p51 subunits of BH10 were cloned in the pRT dual vector, which is derived from pCDF-2 with LIC duet minimal adaptor (Novagen), using restriction sites PpuMI and SacI for the p51 subunit, and SacII and AvrII for the p66 subunit. RT was expressed in the Escherichia coli strain BL21 (Invitrogen) and purified by nickel affinity chromatography and MonoQ anion exchange chromatography. RT concentrations were determined spectrophotometrically based on absorption at […] using a calculated extinction coefficient (261,610 M^−1 cm^−1). The active site concentration of the various RT preparations was calculated as described below.
DNA oligomers were synthesized by Integrated DNA Technologies (Coralville, IA). An 18-nucleotide DNA primer fluorescently labeled with Cy3 at the 5′ end (P18; 5′-Cy3 GTC CCT GTT CGG GCG CCA-3′) and a 100-nucleotide DNA template (T100; 5′-TAGTGTGTGCCCGTCTGTTGTGTGACTCTGGTAACTAGAGATCCCTCAGACCCTTTTAGTCAGTGTGGAAAATCTCTAGCAGTGGCGCCCGAACAGGGAC-3′) were used in primer extension assays. An 18-nucleotide DNA primer 5′-labeled with Cy3 (P18; 5′-Cy3 GTC ACT GTT CGA GCA CCA-3′) and a 31-nucleotide DNA template (T31; 5′- CCATAGCTAGCATTGGTGCTCGAACAGTGAC-3′) were used in the ATP rescue assay and pre-steady state kinetic experiments.
The enzyme (20 nM active sites) was incubated with 20 nM template/primer at 37°C in a buffer containing 50 mM Tris-HCl, pH 7.8 and 50 mM NaCl. The DNA synthesis was initiated by the addition of 1 µM dNTP and 10 mM MgCl2. The primer extension assays were carried out in the presence or absence of varying concentrations of TFV-DP. The reactions were terminated after 15 min by adding equal volume of 100% formamide containing traces of bromophenol blue. The extension products were resolved on a 7 M urea-15% polyacrylamide gel, and visualized by phosphor-imaging (FLA 5100, Fujifilm, Tokyo). We followed standard protocols that utilize the Multi Gauge software (Fujifilm) to quantitate primer extension, [44]. The results from dose response experiments were plotted using Prism 4 (GraphPad Software Inc., CA) and IC50 values for TFV-DP were obtained at midpoint concentrations.

HIV-1 RT K70Q = target: T2, HIV-1 RT K70Q (Human immunodeficiency virus type 1 group M subtype B, UniProt P03366, K669Q); test: Pre-steady state kinetics of binding and incorporation; format: biochemical
T2 construct: made in house; host or cells: Escherichia coli BL21
Experimental: The reactions were quenched at various times (10 ms to 5 s) by adding EDTA to a final concentration of 50 mM. The amounts of product (P18-dAMP) were quantitated and fit to the following burst equation: [drawing 1] (1) where A is the amplitude of the burst phase that represents the RT-DNA complex at the start of the reaction, k obs is the observed burst rate constant for dNTP incorporation, k ss is the steady state rate constant, and t is the reaction time. The rate constant of the linear phase (kcat) can be estimated by dividing the slope of the linear phase by the enzyme concentration. The active site concentration and template/primer binding affinity (KD-DNA) were determined by plotting the amplitude (A) against the concentration of template/primer. The data were fit using non-linear regression to a quadratic equation: [drawing 2] (2) where KD is the dissociation constant for the RT-DNA complex, and [RT] is the concentration of active polymerase molecules. Subsequent biochemical experiments were performed using corrected active site concentrations, [43].
HIV-1 RT (50 nM active sites) was pre-incubated with 50 nM T31/P18 in one syringe (Syringe A), whereas varying concentrations of dNTP and 10 mM MgCl2 were kept in another syringe (Syringe B). The solutions were rapidly mixed to initiate reactions, which were subsequently quenched at various times (5 ms to 10 s) by adding EDTA to a final concentration of 50 mM. The products from each quenched reaction were resolved, quantitated, and plotted as described above. The data were fit by non-linear regression to the burst equation (Eq 1).
To obtain the dissociation constant KD-dNTP for dNTP binding to the RT-DNA complex, the observed burst rates (kobs) were fit to the hyperbolic equation (Eq. 3) using nonlinear regression: [drawing 3] (3) where kpol is the optimal rate of dNTP incorporation.

CC(Cn1cnc2c(N)ncnc21)OCP(=O)(O)OP(=O)(O)OP(=O)(O)O (stereo in doubt) [TFV-DP, tenofovir-diphosphate]
Excision enhancement due to ATP (IC50 with ATP/IC50 without ATP) (HIV-1 RT WT): 2.9 fold
IC50 (HIV-1 RT WT; with 3.5 mM ATP, read-out: IC50 of TFV-DP, with ATP): 1850 ± 197 nM
Fold increase in IC50 vs WT RT, with ATP (HIV-1 RT WT; with ATP): (1) ^b fold
Fold increase in IC50 vs WT RT, without ATP (HIV-1 RT WT; without ATP): (1) ^b fold
IC50 (HIV-1 RT WT; without ATP, read-out: IC50 of TFV-DP, without ATP): 641 ± 83 nM
Selectivity (k pol/Kd)dATP/(k pol/Kd)TFV-DP (HIV-1 RT K70Q; K70Q RT): 6.1
k pol/Kd (HIV-1 RT K70Q; K70Q RT): 360000 M⁻¹ s⁻¹ and 360000 ± 80000 M⁻¹ s⁻¹
Reduced affinity for TFV than the WT enzyme (HIV-1 RT K70Q; K70Q RT vs WT RT): more than 4.5 fold
k pol (HIV-1 RT K70Q; K70Q RT, T31/P18, 37°C): 3.1 s⁻¹ and 3.1 ± 0.4 s⁻¹
Kd (HIV-1 RT K70Q; K70Q RT, binding to RT-DNA complex): 8600 ± 1500 nM
